The results in this text go back to publication PMC2359919, “Molecular targeting of retinoic acid metabolism in neuroblastoma: the role of the CYP26 inhibitor R116010 in vitro and in vivo” (British Journal of Cancer, 2007).

The test system of the test is CYP26B1. In words: CYP26B1 mRNA expression in neuroblastoma cells, real-time PCR. It is filed as cell-based, human. To be noted: 24 h. The protocol:
SH-SY5Y, SH-EP (N- and S-type cells respectively derived from the parental line SK-N-SH), LAN6, IMR-32, NGP and GIMEN neuroblastoma cell lines were cultured routinely in RPMI 1640 medium containing fetal calf serum (10%) and L-glutamine (2 mM). Cells were grown at 37°C in a humidified incubator containing 5% CO2.
13-cis-Retinoic acid and ATRA were dissolved in DMSO and diluted in cell culture medium to obtain final concentrations of 0.1–10 μM. The final concentration of DMSO in all cases was <0.2%. All experiments were performed in dim light and tubes containing retinoids were wrapped in aluminium foil.
CYP26 short hairpin RNAs (shRNAs) were generated using the siSTRIKE U6 Hairpin Cloning System (Promega, Southampton, UK). The CYP26A1, B1 and Ctrl siRNA sequences were designed using Promega software. The cDNA target sequences were CYP26A1 5′-gcgcatcgagcagaacatt; CYP26B1 5′-gtcgcggagggagaagtat; and Ctrl 5′-gccccgcaattgagaaatg. Sense and antisense strands were annealed and ligated into the linearised psiSTRIKE Neomycin Vector. SH-SY5Y cells were transfected with psi-CYP26A1 or psi-CYP26B1 either singly or in combination, or with psi-Ctrl, in six-well plates (1 μg each) or 75 cm^2 flasks (8.9 μg each) using FuGENE 6 reagent (Roche, Lewes, UK) according to the manufacturer's instructions. After a 6 h transfection, cells were treated with ATRA for 40 h and harvested for RNA isolation and HPLC analysis.
RNA was reverse-transcribed using Promega's Reverse Transcription System according to the manufacturer's instructions, using random hexamer primers. […] As internal standard, β-actin was measured simultaneously using the endogenous control assay provided by Applied Biosystems. […] Standard curves were generated from serial dilutions of cDNA prepared from cells treated with ATRA (1 μM) and the data were analysed using the GeneAmp Sequence Detection System software. CYP26C1 expression was analysed as described previously ([Taimi et al, 2004]).
On the technique in general: In qPCR the cycle at which signal appears reflects the starting amount.

As to `C[C@@H]([C@H](c1ccc(Nc2nc3ccccc3s2)cc1)n1ccnc1)N(C)C` [R116010], the “Effect on CYP26B1 expression, R116010 alone” value (SH-SY5Y cells, R116010 1 μM alone) is reported as “no effect”. Besides, the “Effect on CYP26B1 expression, co-incubation with retinoid” value (SH-SY5Y cells, R116010 1 μM with ATRA or 13cisRA (0.01, 0.1 μM) vs retinoid alone) is reported as “significantly increased”.
As to `CC1=C(/C=C/C(C)=C/C=C/C(C)=C/C(=O)O)C(C)(C)CCC1` [ATRA, all-trans-retinoic acid], for the setting “0.1 μM retinoid, panel of neuroblastoma cell lines, relative to SH-SY5Y cells treated with 0.01 μM ATRA”, the CYP26B1 induction result was “induced in all cell lines examined, except IMR-32”.
